Measured values published in PMC13224050, “Synthesis and characterization of a novel phosphatidylinositol 5-phosphate (PI(5)P) photoaffinity probe” (RSC Chemical Biology, 2026).

Experiments:
[1] = target: T1, hUHRF1 (Homo sapiens, UniProt Q96T88); assay: microscale thermophoresis; assay type: binding
T1 construct: gene UHRF1; purified recombinant, bacterially expressed; domains UBL, TTD, PHD, SRA, RING
T1 sequence (Q96T88 1-793): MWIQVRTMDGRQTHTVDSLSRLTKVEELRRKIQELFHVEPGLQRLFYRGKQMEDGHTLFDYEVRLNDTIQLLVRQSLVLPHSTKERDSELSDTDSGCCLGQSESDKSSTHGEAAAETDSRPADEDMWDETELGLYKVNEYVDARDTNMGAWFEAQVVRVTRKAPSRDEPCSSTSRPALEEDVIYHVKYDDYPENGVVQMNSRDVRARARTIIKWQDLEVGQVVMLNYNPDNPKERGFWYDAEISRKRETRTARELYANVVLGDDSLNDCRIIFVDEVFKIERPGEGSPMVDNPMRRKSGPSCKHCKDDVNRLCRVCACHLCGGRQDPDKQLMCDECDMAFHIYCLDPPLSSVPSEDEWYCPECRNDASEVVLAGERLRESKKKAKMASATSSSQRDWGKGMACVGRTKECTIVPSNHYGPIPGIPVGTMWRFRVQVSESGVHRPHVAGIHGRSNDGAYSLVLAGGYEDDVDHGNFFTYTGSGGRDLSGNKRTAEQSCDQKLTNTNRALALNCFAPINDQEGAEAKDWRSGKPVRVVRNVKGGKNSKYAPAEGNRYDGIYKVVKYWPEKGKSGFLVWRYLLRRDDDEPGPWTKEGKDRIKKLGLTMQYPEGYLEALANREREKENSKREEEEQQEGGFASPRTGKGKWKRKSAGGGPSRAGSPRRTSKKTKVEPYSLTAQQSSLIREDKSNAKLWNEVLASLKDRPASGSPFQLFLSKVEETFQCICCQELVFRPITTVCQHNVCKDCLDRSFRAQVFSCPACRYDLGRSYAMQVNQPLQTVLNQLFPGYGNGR

[2] = target: T2, hTAF3 (Homo sapiens, UniProt Q5VWG9); assay: photo-crosslinking with TAMRA click SDS-PAGE; assay type: binding; conditions: covalent; 365 nm 30 min
T2 construct: gene TAF3; purified recombinant, bacterially expressed; abstract prints TAF1 instead
T2 sequence (Q5VWG9 1-929): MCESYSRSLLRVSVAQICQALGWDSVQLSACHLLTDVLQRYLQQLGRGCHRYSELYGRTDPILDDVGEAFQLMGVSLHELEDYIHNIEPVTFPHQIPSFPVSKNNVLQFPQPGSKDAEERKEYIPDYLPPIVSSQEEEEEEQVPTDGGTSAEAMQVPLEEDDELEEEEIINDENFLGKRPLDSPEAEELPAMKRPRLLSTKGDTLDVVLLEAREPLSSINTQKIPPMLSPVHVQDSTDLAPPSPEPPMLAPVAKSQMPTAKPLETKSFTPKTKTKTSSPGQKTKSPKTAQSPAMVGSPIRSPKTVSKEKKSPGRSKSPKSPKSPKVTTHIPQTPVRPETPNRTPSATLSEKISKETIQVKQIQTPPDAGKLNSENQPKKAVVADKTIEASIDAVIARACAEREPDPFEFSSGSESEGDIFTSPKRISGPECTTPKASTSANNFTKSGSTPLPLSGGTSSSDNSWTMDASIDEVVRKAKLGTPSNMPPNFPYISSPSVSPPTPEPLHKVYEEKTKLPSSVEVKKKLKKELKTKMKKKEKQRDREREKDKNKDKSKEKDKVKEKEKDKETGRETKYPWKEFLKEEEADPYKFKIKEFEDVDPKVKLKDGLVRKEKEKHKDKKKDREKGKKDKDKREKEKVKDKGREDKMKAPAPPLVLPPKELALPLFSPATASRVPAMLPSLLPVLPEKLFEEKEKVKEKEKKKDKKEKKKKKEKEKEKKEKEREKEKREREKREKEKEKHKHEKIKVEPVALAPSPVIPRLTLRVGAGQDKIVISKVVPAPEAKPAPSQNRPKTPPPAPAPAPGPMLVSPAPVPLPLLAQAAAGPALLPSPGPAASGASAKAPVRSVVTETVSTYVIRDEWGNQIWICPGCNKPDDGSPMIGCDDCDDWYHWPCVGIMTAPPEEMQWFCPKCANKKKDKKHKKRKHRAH

Kd [1] [µM] | Compound | photo-crosslinking with TAMRA click SDS-PAGE [2]
~8.6 | CCCCCCCCCCCCCCCC(=O)OC[C@H](COP(=O)(O)O[C@H]1[C@H](O)[C@@H](OP(=O)(O)O)[C@H](O)[C@@H](O)[C@H]1O)OC(=O)CCCCCCCCCCCCCCC [compound 1, di-C16 : 0 PI(5)P] | 
 | C#CCCCCCCCCCCC1(CCC(=O)O[C@H](COC(=O)CCCCCCCCCCCCCCC)COP(=O)(O)O[C@H]2[C@H](O)[C@@H](OP(=O)(O)O)[C@H](O)[C@@H](O)[C@H]2O)N=N1 [compound 9, PI(5)P diazirine probe] | confirming that the diazirine probe bound to bacterially expressed recombinant hUHRF1 and hTAF3
